# Results published in patent US20060084599A1, “Compositions, methods and kits relating to notch signaling” (Maine Medical Center, priority 2003, published 2006).
# B1: sDl1: soluble non-transmembrane form (extracellular domain) of the Notch ligand Delta1 (protein)
# chain: QVWSSGVFELKLQEFVNKKGLLGNRNCCRGGAGPPPCACRTFFRVCLKHYQASVSPEPPCTYGSAVTPVLGVDSFSLPDGGGADSAFSNPIRFPFGFTWPGTFSLIIEALHTDSPDDLATENPERLISRLATQRHLTVGEEWSQDLHSSGRTDLKYSYRFVCDEHYYGEGCSVFCRPRDDAFGHFTCGERGEKVCNPGWKGPYCTEPICLPGCDEQHGFCDKPGECKCRVGWQGRYCDECIRYPGCLHGTCQQPWQCNCQEGWGGLFCNQDLNYCTHHKPCKNGATCTNTGQGSYTCSCRPGYTGATCELGIDECDPSPCKNGGSCTDLENSYSCTCPPGFYGKICELSAMTCADGPCFNGGRCSDSPDGGYSCRCPVGYSGFNCEKKIDYCSSSPCSNGAKCVDLGDAYLCRCQAGFSGRHCDDNVDDCASSPCANGGTCRDGVNDFSCTCPPGYTGRNCSAPVSRCEHAPCHNGATCHERGHRYVCECARGYGGPNCQFLLPELPPGPAVVDLTEKLEGQGGPFPW
# modifications: left off: small tags and cut ends
# notes: soluble non-transmembrane form (extracellular domain) of the Notch ligand Delta1
# Tests used:
# [1] = tested on: NIH 3T3 cell transfectants; assay: Immunofluorescence microscopy of actin stress fibers and focal adhesion sites; type: cell-based, mouse; conditions: stable NIH 3T3 cell transfectants expressing the ligand
# Description: Immunofluorescence Microscopy. Cells were plated on glass coverslips and fixed with 4% (v/v) paraformaldehyde. Actin stress fibers were visualized by FITC-conjugated phalloidin (Sigma), a monoclonal anti-vinculin antibody (Sigma) was used to visualize focal adhesion sites, and a monoclonal anti-β-catenin antibody (BD Transduction Laboratories) and a monoclonal anti-pan cadherin antibody (Sigma) were both used to visualize cell-cell adhesions. Immunofluorescent staining and confocal microscopy were performed as previously described (Small et al., 2001, J. Biol. Chem. 276:32022-32030).
# FGF1.A promoter = FGF1.A promoter luciferase reporter; type: cell-based, murine; conditions: sJ1 NIH 3T3 cell transfectants versus insert-less vector
# Description: In order to confirm the sJ1-dependent function of the FGF1.A promoter, the corresponding 1.8 Kbp region (Madiai et al., 1999, J. Biol. Chem. 274:11937-11944) was cloned into a promoter-less firefly luciferase reporter vector and FGF1.A-driven firefly luciferase activity was evaluated in both insert-less vector and sJ1 NIH 3T3 cell transfectants.
# FGF1 transcript = assay: Nuclear run-on analysis of FGF1 transcription; type: cell-based, murine
# Description: Approximately either 1×10^7 Swiss or NIH 3T3 cells were harvested and washed using ice-cold 50 mM sodium phosphate buffer, pH 7.0 containing 15 mM NaCl. Cell pellets were lysed in 4 ml of ice-cold 10 mM Tris-HCl, pH 7.5, containing 3 mM CaCl2, 3 mM MgCl2, 10 mM NaCl, and 0.5 % NP-40. The nuclear pellet was resuspended in glycerol storage buffer (50 mM Tris-HCl, pH 8.3 containing 40% glycerol, 5 mM MgCl2 and 0.1 mM EDTA), the nuclei were snap frozen, and stored in liquid nitrogen. For run-on transcription, 200 μl aliquots of the frozen nuclei were added to 200 μl of reaction buffer (10 mM Tris-HCl, pH 8.3 containing 5 mM MgCl2, 300 mM KCl, 5 mM DTT, 1 mM each of ATP, CTP, and GTP, 40 units of RNase inhibitor and 100 μCi of [^32P]UTP (800 Ci/mmol; Amersham), and incubated at 30° C. for 30 minutes. The mixture was treated with 100 units of RNase-free DNase I for 30 minutes at 30° C. and then incubated with 400 μl of 20 mM Tris-HCl, pH 7.5, containing 2% SDS, 10 mM EDTA, […] proteinase K for 30 minutes at 42° C. Following phenol/CHCl3 extraction, the labelled transcripts were precipitated with isopropanol and dissolved in 50 μl of 10 mM TES, pH 7.5, containing 10 mM EDTA and 0.2% SDS. Linearized plasmid constructs (0.4 μg/dot) containing either the fgf1 or gapdh cDNA were alkali denatured and immobilized onto a Hybond-N^+ membrane (Amersham). Hybridization was performed in 1 ml of ULTRA Hyb (Ambion), with 5×10^6 cpm of radiolabeled RNA and yeast RNA (10 μg/ml) for 18 hours with shaking at 50° C. Membranes were washed twice with washing buffer (2×SSC containing 0.1% SDS) at 50° C. and analyzed using a phosphoimager (Molecular Dynamics).
# PAR1 null cells = assay: FGF1 release from PAR1 null cells; type: cell-based, mouse; conditions: 10 μg/ml α-thrombin, 5 and 60 minutes
# Description: Murine NIH 3T3 (ATCC), Swiss 3T3 (ATCC), sJ1 NIH 3T3 cell transfectants were all disclosed elsewhere herein (e.g., Example 1), FGF1 NIH 3T3 transfectants (Jackson et al., 1992, Proc. Natl. Acad. Sci. U.S.A. 89:10691-10695) and PAR1 null mouse embryonic fibroblasts (a gift from Dr. S. Coughlin) were grown in Dulbecco's modified Eagle's medium (DMEM; Life Technologies) supplemented with 10% bovine calf serum (BCS; Hyclone) and 1× antibiotic/antimycotic (Life Technologies). All stable NIH 3T3 cell transfectant cultures were further supplemented with 0.4 g/L Geneticin (GIBCO). […]
# FGF1R136K NIH 3T3 cell transfectants or adenovirally-transduced NIH 3T3 cells were washed with DMEM containing 5 units/ml of heparin (Sigma) and stimulated with either 10 μg/ml α-thrombin (a gift from Dr. J. Fenton) or 5 μM TRAP (Sigma) at 37° C. for different periods of time. […] Cell viability was assessed by measuring lactate dehydrogenase activity in the conditioned medium after filtration as disclosed previously elsewhere herein (published as Mandinova et al., 2003, J. Cell Sci. 116:2687-2696), and total cell lysates were obtained and processed for immunoblot analysis as described (Landriscina et al., 2001, J. Biol. Chem. 276:22544-22552). […]
# NSC populations = assay: NSC clonal expansion on full-length Jagged1 NIH 3T3 feeder layer; type: cell-based; conditions: 5 μg/ml thrombin
# Text: To further evaluate the activity of thrombin as a modifier of Jagged1, the clonal expansion studies were repeated using NSC populations cultured in the presence of a viable full-length Jagged1 NIH 3T3 cell transfectant feeder layer.
molecule,measurement,setting,value
"sJ1: Soluble Jagged1, amino acid residues about 1 to 1067 (SEQ ID NO:3) of full-length human Jagged1",F-actin stress fibers and focal adhesion sites,[1],significantly reduced actin stress fibers and focal adhesion sites
same,FGF1.A-driven promoter activity,FGF1.A promoter,significant increase in the FGF1.A-driven promoter activity
thrombin,induction of FGF1 transcript,FGF1 transcript; 10 μg/ml α-thrombin or 5 μM TRAP,able to induce the expression of the FGF1 transcript
same,time at which FGF1 mRNA reached a plateau,FGF1 transcript; NIH 3T3 and Swiss 3T3 cells,2 h
same,time at which FGF1 mRNA was initially detected,FGF1 transcript; NIH 3T3 and Swiss 3T3 cells,15 min
same,export of FGF1R136K from PAR1 null cells,PAR1 null cells,unable to induce the export of the FGF1R136K mutant
same,size of NSC colonies on full-length Jagged1 feeder layer,NSC populations,exaggeration of the size of the NSC colonies
B1,F-actin stress fibers and focal adhesion sites,[1],normal levels of F-actin stress fibers and focal adhesion sites
